Experimental data: patent publication US20230382924A1, “MODULATORS OF CYSTIC FIBROSIS TRANSMEMBRANE CONDUCTANCE REGULATOR” (VERTEX PHARMACEUTICALS INCORPORATED, priority 2020, published 2023)
Like-named read-outs stand apart in the source and are kept apart here. Blank lines part the entries; values can stand above or below the compound they belong to.

Legend:
F508del = target: T1, F508del (Homo sapiens, UniProt P13569, DEL508-508); experiment: 3T3 assay: membrane potential optical assay for F508del correction in NIH 3T3 cells; assay type: cell-based
T1 construct: expressed in transfected cells
From the text: 1. Membrane Potential Optical Methods for Assaying F508del Modulation Properties of Compounds
The assay utilizes fluorescent voltage sensing dyes to measure changes in membrane potential using a fluorescent plate reader (e.g., FLIPR III, Molecular Devices, Inc.) as a readout for increase in functional F508del in NIH 3T3 cells. The driving force for the response is the creation of a chloride ion gradient in conjunction with channel activation by a single liquid addition step after the cells have previously been treated with compounds and subsequently loaded with a voltage sensing dye.
2. Identification of Corrector Compounds
To identify correctors of F508del, a single-addition HTS assay format was developed. This HTS assay utilizes fluorescent voltage sensing dyes to measure changes in membrane potential on the FLIPR III as a measurement for increase in gating (conductance) of F508del in F508del NIH 3T3 cells. The F508del NIH 3T3 cell cultures were incubated with the corrector compounds at a range of concentrations for 18-24 hours at 37° C., and subsequently loaded with a redistribution dye. The driving force for the response is a Cl^− ion gradient in conjunction with channel activation with forskolin in a single liquid addition step using a fluorescent plate reader such as FLIPR III.
Bath Solution #1: (in mM) NaCl 160, KCl 4.5, CaCl2) 2, MgCl2 1, HEPES 10, pH 7.4 with NaOH.
Chloride-free bath solution: Chloride salts in Bath Solution #1 (above) are substituted with gluconate salts.
NIH3T3 mouse fibroblasts stably expressing F508del are used for optical measurements of membrane potential. The cells are maintained at 37° C. in 5% CO2 and 90% humidity in Dulbecco's modified Eagle's medium supplemented with 2 mM glutamine, 10% fetal bovine serum, 1×NEAA, b-ME, 1×pen/strep, and 25 mM HEPES in 175 cm^2 culture flasks. For all optical assays, the cells were seeded at ˜20,000/well in 384-well matrigel-coated plates. For the correction assays, the cells are cultured at 37° C. with and without compounds for 16-24 hours.

CFTR [1] = target: T2, CFTR (Homo sapiens, UniProt P13569); experiment: Membrane Potential Dye, Enteroid Assay A; assay type: cell-based; settings: for EC50: read-out: Ent. A EC50
Outline: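 Enteroid cells were loaded with methyl oxonol membrane potential dye (plus CaCCinh-A01 and Chicago Sky Blue) for 25 min at room temperature. Chloride transport was started by switching to chloride-free gluconate stimulation solution, with fluorescence read for 15 min. Activity was expressed as % of a triple-combination CFTR modulator control (3 μM, 3 μM, 300 nM acute).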

CFTR [2] = target: T2, CFTR; experiment: Membrane Potential Dye, Enteroid Assay B; assay type: cell-based; settings: for EC50: read-out: Ent. B EC50
Outline: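 Enteroid cells loaded 25 min at room temperature with 20 μM methyl oxonol plus 30 μM CaCCinh-A01 and 30 μM Chicago Sky Blue, then switched to chloride-free gluconate buffer. Chloride transport was started by chloride-free stimulation solution, with fluorescence read for 15 min.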

[3] = NIH 3T3 cells, F508del correction

T2 sequence (P13569 with tags, fused parts or gaps DEL508-508): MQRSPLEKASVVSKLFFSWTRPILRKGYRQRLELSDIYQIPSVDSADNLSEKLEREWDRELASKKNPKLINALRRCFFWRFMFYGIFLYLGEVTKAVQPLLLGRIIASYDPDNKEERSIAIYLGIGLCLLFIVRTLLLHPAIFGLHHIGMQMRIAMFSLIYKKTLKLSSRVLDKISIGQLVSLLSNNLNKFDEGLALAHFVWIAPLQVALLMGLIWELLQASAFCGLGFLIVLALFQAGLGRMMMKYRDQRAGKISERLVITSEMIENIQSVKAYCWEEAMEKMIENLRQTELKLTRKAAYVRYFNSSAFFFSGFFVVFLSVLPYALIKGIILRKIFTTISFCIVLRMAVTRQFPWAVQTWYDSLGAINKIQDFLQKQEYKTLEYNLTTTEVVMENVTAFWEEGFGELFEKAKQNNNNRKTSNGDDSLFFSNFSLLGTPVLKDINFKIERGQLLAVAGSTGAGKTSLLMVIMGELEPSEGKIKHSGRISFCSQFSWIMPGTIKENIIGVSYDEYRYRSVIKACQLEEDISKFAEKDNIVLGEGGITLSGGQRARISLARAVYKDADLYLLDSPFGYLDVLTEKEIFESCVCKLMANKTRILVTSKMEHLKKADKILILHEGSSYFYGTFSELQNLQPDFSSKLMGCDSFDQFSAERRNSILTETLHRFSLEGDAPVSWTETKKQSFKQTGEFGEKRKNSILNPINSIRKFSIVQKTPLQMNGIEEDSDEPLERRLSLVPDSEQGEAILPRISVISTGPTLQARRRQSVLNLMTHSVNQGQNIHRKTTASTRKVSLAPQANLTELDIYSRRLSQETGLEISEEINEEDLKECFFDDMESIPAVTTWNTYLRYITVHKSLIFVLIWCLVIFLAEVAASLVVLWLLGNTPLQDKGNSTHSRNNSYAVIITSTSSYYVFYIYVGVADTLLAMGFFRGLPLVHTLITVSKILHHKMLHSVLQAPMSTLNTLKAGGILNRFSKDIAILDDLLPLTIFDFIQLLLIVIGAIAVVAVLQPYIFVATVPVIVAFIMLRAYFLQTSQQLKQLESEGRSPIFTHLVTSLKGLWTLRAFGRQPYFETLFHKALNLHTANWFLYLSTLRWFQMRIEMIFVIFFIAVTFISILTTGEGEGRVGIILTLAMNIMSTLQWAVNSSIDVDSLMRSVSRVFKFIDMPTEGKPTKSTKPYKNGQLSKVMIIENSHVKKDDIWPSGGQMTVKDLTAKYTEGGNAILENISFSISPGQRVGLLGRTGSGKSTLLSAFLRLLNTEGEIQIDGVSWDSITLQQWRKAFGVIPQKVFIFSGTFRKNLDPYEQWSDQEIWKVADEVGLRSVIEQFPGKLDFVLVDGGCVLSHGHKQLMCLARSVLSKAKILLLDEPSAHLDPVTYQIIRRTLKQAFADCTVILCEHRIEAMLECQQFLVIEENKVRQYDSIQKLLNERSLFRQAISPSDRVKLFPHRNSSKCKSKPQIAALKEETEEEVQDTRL
T1 sequence (P13569 with tags, fused parts or gaps DEL508-508): as above

EC50 (F508del; [3]): 1000 to 3000 nM | Ent. A Max Activity (CFTR [1]; Enteroid Assay A): ++ (++ is 30-60%) | EC50 (CFTR [1]; Enteroid Assay A): 1000 to 3000 nM
Compound: Cc1cccc(C)c1-c1cc2nc(n1)NS(=O)(=O)c1cccc(c1)NC(=O)Nc1cccc(c1)O2 [Compound 1, 5-(2,6-Dimethylphenyl)-9,9-dioxo-2-oxa-9λ^6-thia-6,8,15,17,24-pentazatetracyclo[16.3.1.13,7.110,14]tetracosa-1(21),3,5,7(24),10(23),11,13,18(22),19-nonaen-16-one]
ring closure, yield after HPLC (from 3-amino-N-[4-(3-aminophenoxy)-6-(2,6-dimethylphenyl)pyrimidin-2-yl]benzenesulfonamide (Dihydrochloride salt), crosslinker bond, 15-membered ring, 1,3-dimethyl-tetrahydro-pyrimidin-2-one, 26.2 mM): 13%

Ent. A Max Activity (CFTR [1]; Enteroid Assay A): +++ (+++ is >600%) | EC50 (CFTR [1]; Enteroid Assay A): < 1000 nM | Ent. B Max Activity (CFTR [2]; Enteroid Assay B): ++ (++ is 30-60%) | EC50 (CFTR [2]; Enteroid Assay B): < 1000 nM
Compound: Cc1cccc(C)c1-c1cc2nc(n1)NS(=O)(=O)c1cccc(c1)C(=O)NC[C@@H](c1ccccc1)O2 [Compound 25, (10R)-6-(2,6-Dimethylphenyl)-2,2-dioxo-10-phenyl-9-oxa-2λ^6-thia-3,5,12,19-tetrazatricyclo[12.3.1.14,8]nonadeca-1(18),4(19),5,7,14,16-hexaen-13-one]
ring closure, yield after HPLC (from Cc1cccc(C)c1-c1cc(O[C@@H](CN)c2ccccc2)nc(NS(=O)(=O)c2cccc(C(=O)O)c2)n1, amide bond, 13-membered ring, HATU/DIEA, DMF, 25.9 mM, 25.0 °C, 1.0 h, 2 steps): 23%

Ent. A Max Activity (CFTR [1]; Enteroid Assay A): +++ (+++ is >600%) | EC50 (CFTR [1]; Enteroid Assay A): 3000 to 30000 nM | Ent. B Max Activity (CFTR [2]; Enteroid Assay B): ++ (++ is 30-60%) | EC50 (CFTR [2]; Enteroid Assay B): 3000 to 30000 nM
Compound: Cc1cccc(C)c1-c1cc2nc(n1)NS(=O)(=O)c1cccc(c1)C(=O)NC[C@@H](C)O2 [Compound 28, (10R)-6-(2,6-dimethylphenyl)-10-methyl-2,2-dioxo-9-oxa-2λ^6-thia-3,5,12,19-tetrazatricyclo[12.3.1.14,8]nonadeca-1(18),4(19),5,7,14,16-hexaen-13-one]
ring closure, yield after HPLC (from Cc1cccc(C)c1-c1cc(O[C@H](C)CN)nc(NS(=O)(=O)c2cccc(C(=O)O)c2)n1, amide bond, 13-membered ring, HATU/DIEA, DMF, 46.7 mM, 25.0 °C, 1.0 h, 2 steps): 46%

EC50 (F508del; [3]): < 1000 nM | Ent. A Max Activity (CFTR [1]; Enteroid Assay A): +++ (+++ is >600%) | EC50 (CFTR [1]; Enteroid Assay A): < 1000 nM
Compound: Cc1cccc(C)c1-c1cc2nc(n1)NS(=O)(=O)c1cccc(c1)C(=O)N[C@H](CCC(C)C)CO2 [Compound 46, (11R)-6-(2,6-dimethylphenyl)-11-(3-methylbutyl)-9-oxa-2λ^6-thia-3,5,12,19-tetraazatricyclo[12.3.1.14,8]nonadeca-1(17),4,6,8(19),14(18),15-hexaene-2,2,13-trione]
ring closure, yield after HPLC (from Cc1cccc(C)c1-c1cc(OC[C@H](N)CCC(C)C)nc(NS(=O)(=O)c2cccc(C(=O)O)c2)n1, amide bond, 13-membered ring, HATU/DIEA, DMF, 9.1 mM, 25.0 °C, 1.0 h, 3 steps): 3%

Ent. B Max Activity (CFTR [2]; Table 9): +++ (+++ is >60%) | EC50 (CFTR [2]; Table 9): < 1000 nM
Compound: Cc1cccc(C)c1-c1cc2nc(n1)NS(=O)(=O)c1cncc(n1)C(=O)N[C@H](CC(C)C)CO2 [Compound 70, (11R)-6-(2,6-dimethylphenyl)-11-isobutyl-2,2-dioxo-9-oxa-2λ^6-thia-3,5,12,16,18,19-hexazatricyclo[12.3.1.14,8]nonadeca-1(18),4(19),5,7,14,16-hexaen-13-one]
ring closure, yield after HPLC (from Cc1cccc(C)c1-c1cc(OC[C@H](N)CC(C)C)nc(NS(=O)(=O)c2cncc(C(=O)O)n2)n1, amide bond, 13-membered ring, HATU/DIEA, DMF, 18.6 mM, 25.0 °C, 25.0 h): 29%

EC50 (F508del; [3]): < 1000 nM | Ent. A Max Activity (CFTR [1]; Enteroid Assay A): +++ (+++ is >600%) | EC50 (CFTR [1]; Enteroid Assay A): < 1000 nM
Compound: Cc1cc2cc(c1)S(=O)(=O)Nc1nc(cc(-c3c(C)cccc3C)n1)OC[C@@H](CC1CCCCC1)NC2=O [Compound 74, (11R)-11-(Cyclohexylmethyl)-6-(2,6-dimethylphenyl)-16-methyl-2,2-dioxo-9-oxa-2λ^6-thia-3,5,12,19-tetrazatricyclo[12.3.1.14,8]nonadeca-1(18),4(19),5,7,14,16-hexaen-13-one]
ring closure, yield after HPLC (from Cc1cc(C(=O)O)cc(S(=O)(=O)Nc2nc(OC[C@H](N)CC3CCCCC3)cc(-c3c(C)cccc3C)n2)c1, amide bond, 13-membered ring, HATU/TEA, DMF, 39.0 mM, 0.42 h): 28%

Emax (F508del; NIH3T3, Table 8, read-out: 3T3 Max Activity): > 60% | EC50 (F508del; Table 8): < 1000 nM | Ent. A Max Activity (CFTR [1]; Table 8): +++ (+++ is >60%) | EC50 (CFTR [1]; Table 8): < 1000 nM
Compound: Cc1cccc(C)c1-c1cc2nc(n1)NS(=O)(=O)c1cccc(c1C)C(=O)N[C@H](CC1CCCCC1)CO2 [Compound 75, (11R)-11-(Cyclohexylmethyl)-6-(2,6-dimethylphenyl)-18-methyl-9-oxa-2λ^6-thia-3,5,12,19-tetraazatricyclo[12.3.1.14,8]nonadeca-1(17),4(19),5,7,14(18),15-hexaene-2,2,13-trione]
ring closure, yield after HPLC (from Cc1cccc(C)c1-c1cc(OC[C@H](N)CC2CCCCC2)nc(NS(=O)(=O)c2cccc(C(=O)O)c2C)n1, amide bond, 13-membered ring, HATU/TEA, DMF, 40.1 mM, 0.42 h): 8%

Ent. B Max Activity (CFTR [2]; Table 9): +++ (+++ is >60%) | EC50 (CFTR [2]; Table 9): 1000 to 3000 nM
Compound: Cc1cccc(C)c1-c1cc2nc(n1)NS(=O)(=O)c1cc(n(C)n1)C(=O)N[C@H](CC(C)C)CO2 [Compound 76, (10R)-15-(2,6-Dimethylphenyl)-10-isobutyl-6-methyl-3,3-dioxo-12-oxa-3λ^6-thia-2,5,6,9,16,17-hexazatricyclo[11.3.1.14,7]octadeca-1(17),4,7(18),13,15-pentaen-8-one]
ring closure, yield after HPLC (from Cc1cccc(C)c1-c1cc(OC[C@H](N)CC(C)C)nc(NS(=O)(=O)c2cc(C(=O)O)n(C)n2)n1, amide bond, 13-membered ring, HATU/DIEA, DMF, 3.1 mM, 25.0 °C, 2.0 h): 33%

EC50 (F508del; [3]): < 1000 nM | Ent. A Max Activity (CFTR [1]; Enteroid Assay A): +++ (+++ is >600%) | EC50 (CFTR [1]; Enteroid Assay A): < 1000 nM | EC50 (CFTR [2]; Enteroid Assay B): < 1000 nM
Compound: Cc1cccc(C)c1-c1cc2nc(n1)NS(=O)(=O)c1cccc(c1)C(=O)N[C@H](CC(C)C)CO2 [Compound 96, (11R)-6-(2,6-Dimethylphenyl)-11-isobutyl-2,2-dioxo-9-oxa-2λ^6-thia-3,5,12,19-tetrazatricyclo[12.3.1.14,8]nonadeca-1(18),4(19),5,7,14,16-hexaen-13-one]
ring closure, yield after HPLC (from Cc1cccc(C)c1-c1cc(OC[C@H](N)CC(C)C)nc(NS(=O)(=O)c2cccc(C(=O)O)c2)n1, amide bond, 13-membered ring, HATU/TEA, DMF, 31.8 mM, 25.0 °C, 3.0 h): 57%

EC50 (F508del; [3]): < 1000 nM | Ent. A Max Activity (CFTR [1]; Enteroid Assay A): +++ (+++ is >600%) | EC50 (CFTR [1]; Enteroid Assay A): < 1000 nM
Compound: Cc1cccc(C)c1-c1cc2nc(n1)NS(=O)(=O)c1cccc(c1)C(=O)N[C@H](CC1CCC1)CO2 [Compound 113, (11R)-11-(cyclobutylmethyl)-6-(2,6-dimethylphenyl)-9-oxa-2λ^6-thia-3,5,12,19-tetraazatricyclo[12.3.1.14,8]nonadeca-1(17),4,6,8(19),14(18),15-hexaene-2,2,13-trione]
ring closure, yield after HPLC (from Cc1cccc(C)c1-c1cc(OC[C@H](N)CC2CCC2)nc(NS(=O)(=O)c2cccc(C(=O)O)c2)n1, amide bond, 13-membered ring, HATU/DIEA, DMF, 65.5 mM, 25.0 °C, 1.0 h, 2 steps): 21%

Ent. A Max Activity (CFTR [1]; Enteroid Assay A): +++ (+++ is >600%) | EC50 (CFTR [1]; Enteroid Assay A): < 1000 nM
Compound: Cc1cccc(C)c1-c1cc2nc(n1)NS(=O)(=O)c1cccc(c1)C(=O)N[C@H](CC1CC1)CO2 [Compound 114, (11R)-11-(Cyclopropylmethyl)-6-(2,6-dimethylphenyl)-9-oxa-2λ^6-thia-3,5,12,19-tetraazatricyclo[12.3.1.14,8]nonadeca-1(17),4(19),5,7,14(18),15-hexaene-2,2,13-trione]
ring closure, yield after HPLC (from Cc1cccc(C)c1-c1cc(OC[C@H](N)CC2CC2)nc(NS(=O)(=O)c2cccc(C(=O)O)c2)n1, amide bond, 13-membered ring, HATU/TEA, DMF, 18.8 mM, 17.0 h): 61%
